Data reported in article PMC10661773, “Cytotoxic pathways activated by multifunctional thiosemicarbazones targeting sigma-2 receptors in breast and lung carcinoma cells” (Pharmacological Reports, 2023).
Where two headings read alike, the source gives them in different places.

Legend:
A549 cells [1] = assay: Mitochondrial depolarization, JC-1 staining; type: cell-based, human; conditions: A549, 2 h, 50 µM
Method: (§1) Staining with the JC-1 fluorescent probe (Biotium Inc., Freemont, CA; #30,001-30001-T) was performed as described in Riganti et al. 2015 [21]. Fluorescence units were used to calculate the percentage of green-fluorescent (i.e., depolarized) mitochondria vs red-fluorescent (i.e., polarized) mitochondria.

MCF7 cells [2] = assay: Mitochondrial depolarization, JC-1 staining; type: cell-based, human; conditions: MCF7, 2 h, 50 µM
Method: as §1

A549 cells [3] = assay: Mitochondrial ROS, MitoSOX staining; type: cell-based, human; conditions: A549, 2 h, 50 µM
Method: (§2) Intramitochondrial reactive oxygen species (ROS) were measured using the MitoSOX fluorescent probe (Invitrogen ThermoScientific, # M36008), according to the manufacturer’s instructions. For total ROS, cells were incubated with 5 µmol/L of 5-(and-6)-chlorometyl-20,70-dichlorodihydro-fluorescein diacetate-acetoxymethyl ester (DCFDA-AM, Sigma, #21,884), as described by Riganti et al. 2015 [21]. The results are expressed as nmoles/mg mitochondrial or cellular proteins, respectively.

MCF7 cells [4] = assay: Mitochondrial ROS, MitoSOX staining; type: cell-based, human; conditions: MCF7, 2 h, 50 µM
Method: as §2

MCF10A = assay: Cell viability, MTT assay at 48 h; type: cell-based; conditions: Homo sapiens, MCF-10A, read-out: EC50 ± SEM, normal cells MCF10A
Method: (§3) Human MCF7 breast adenocarcinoma (#HTB-22) and human A549 carcinoma (#CCL-85) cell lines, non-tumor human breast (MCF10A, #CRL-10317) and lung (BEAS-2B, #CRL-9482) cells were obtained from American Type Culture Collection (ATCC, Bethesda, MD). MCF7 cells were cultured in DMEM medium (Gibco Thermo Scientific, Waltham, MA; #10,565,018), A549 in HAM’s F12 medium (Gibco Thermo Scientific; #11,765,054), and BEAS-2B in RPMI-1640 medium (Gibco Thermo Scientific; # 61,870,010), all supplemented with 10% v/v fetal bovine serum (FBS; Sigma, St. Louis, MO; #F4135) and 1% v/v penicillin–streptomycin (Sigma; #P4458). MCF10A cells were cultured in DMEM/F12 medium (Gibco Thermo Scientific; #31,331,028) supplemented with 5% v/v horse serum (Sigma; #H1270) and 1% v/v penicillin–streptomycin, 20 ng/mL epidermal growth factor (Sigma, #E4127), 10 µg/mL insulin (Sigma, #I3536), […] hydrocortisone (Sigma, #H0888), 100 ng/mL cholera toxin (Sigma, #C8052). Cells were kept in a humidified incubator at 37 °C with 5% CO2.
(§4) Cell growth was determined using the MTT assay at 48 h. On day 1, 25,000 cells/well were seeded into 96-well plates in a volume of 100 μL. On day 2, the various drug concentrations (1 μM–100 μM) were added. In all experiments, the various drug solvents (EtOH, Sigma, # E7148; DMSO, Sigma, # D8418) were added to each control to evaluate possible cytotoxicity of the solvent. After the established incubation time with drugs (48 h), MTT (0.5 mg/mL, Sigma # M2003) was added to each well, and after 3–4 h incubation at 37 °C, the supernatant was removed. Formazan crystals were solubilized using 100 μl of DMSO/EtOH (1:1) and absorbance values at 570 and 630 nm were determined on the microplate reader Victor 3 from PerkinElmer Life Sciences (Waltham, MA).

BEAS-2B = assay: Cell viability, MTT assay at 48 h; type: cell-based; conditions: Homo sapiens, read-out: EC50 ± SEM, normal cells BEAS-2B
Method: as §3, §4

MCF7 and A549 cells = assay: Whole cell ROS, DCFDA-AM probe; type: cell-based, human; conditions: MCF7 and A549, 2 h, 50 µM
Method: as §2

MCF7 [5] = system: MCF7; set-up: method as in doi:10.1039/C5RA19857G; conditions: MTT; read-out: EC50, tumor cells MCF7; cited from earlier work
sigma-2 receptors = sigma-2 receptors (Homo sapiens, UniProt Q5BJF2); conditions: read-out: Sigma-2 Affinity Ki; cited from earlier work
caspase 9 in MCF7 cells = assay: Caspase 9 activity, fluorimetric; type: cell-based, human; conditions: MCF7, 2 h, 50 µM
Method: Activation of caspase 3, caspase 7 and caspase 9 was measured using the Caspase 3/7 Fluorescence Assay kit (Cayman Chemical, Ann Arbor, MI; #10,009,135) and the Caspase 9 fluorimetric assay kit (Enzo Life Science, Roma, Italy; #ALX-850-224). The results were expressed as nmoles of the hydrolyzed substrate of each caspase/mg cellular proteins, according to a previously set titration curve.

[6] = system: GRP78, ATF6, IRE1, PERK in MCF7 cells; assay: ER stress markers, qRT-PCR and immunoblotting; type: cell-based, human; conditions: MCF7, 2 h, 50 µM
Method: 1 μg total RNA was reverse-transcribed using the iScript Reverse Transcription Supermix kit (Bio-Rad Laboratories, Hercules, CA; #1,708,840), according to the manufacturer’s instruction. 25 ng cDNA were amplified with 10 μL IQ™ SYBR Green Supermix (Bio-Rad Laboratories, # 1708880B05). Primers were designed with the qPrimer Depot software (http://primerdepot.nci.nih.gov/). qRT-PCR was carried out with a CFX96™ Real-Time Detector System (Bio-Rad Laboratories). Cycling conditions were: 30 s at 95 °C, followed by 40 cycles of denaturation (15 s at 95 °C), annealing/extension (30 s at 60 °C). The same cDNA preparation was used to quantify the genes of interest and the housekeeping gene S14, used to normalize gene expression. The relative quantitation of each sample was carried out using the Gene Expression Quantitation software (Bio-Rad Laboratories). Results were expressed in arbitrary units. For each gene, the expression in untreated cells was assumed to be “1”.
Cells were rinsed with ice-cold lysis buffer (50 mM, Tris, 10 mM EDTA, 1% v/v Triton-X100), supplemented with the protease inhibitor cocktail set III (80 μM aprotinin, 5 mM bestatin, 1.5 mM leupeptin, 1 mM pepstatin; Sigma, # 535,140), 2 mM phenylmethylsulfonyl fluoride (Sigma: #P7626) and 1 mM Na3VO4, (Sigma; #S6508) then sonicated and centrifuged at 13,000 × g for 10 min at 4 °C. 20 μg protein extracts were subjected to SDS–PAGE and probed with the antibodies for: GRP78 (#ab21685), ATF6 (#ab122897), IRE-1 (#ab37073), PERK (#ab65142), actin (#ab1801) (all from Abcam, Cambridge, UK), followed by a peroxidase-conjugated secondary antibody (Bio-Rad Laboratories). The membranes were washed with Tris-buffered saline-Tween 0.1% v/v solution, and the proteins were detected by enhanced chemiluminescence (Bio-Rad Laboratories, #1,705,061). The densitometric analysis was performed using the ImageJ software (https://imagej.nih.gov/), calculating the ratio protein of interest/actin band density, putting actin band density as 1 relative unit in each condition. Densitometric analysis and whole blots are included as Supporting Information.

P-gp = molecular target: T1, P-gp (Homo sapiens, UniProt P08183); conditions: cited from earlier work
T1 construct: expressed in transfected cells; host or cells: MDCK-MDR1

A549 [7] = system: A549; set-up: method as in doi:10.1039/C5RA19857G; conditions: MTT; read-out: EC50, tumor cells A549; cited from earlier work
MCF7 [8] = assay: Cell viability, MTT assay at 48 h; type: cell-based; conditions: Homo sapiens, MCF7, 48 h, read-out: EC50 ± SEM, tumor cells MCF7
Method: as §3, §4

A549 [9] = assay: Cell viability, MTT assay at 48 h; type: cell-based; conditions: Homo sapiens, A549, 48 h, read-out: EC50 ± SEM, tumor cells A549
Method: as §3, §4

T1 sequence (P08183 whole entry): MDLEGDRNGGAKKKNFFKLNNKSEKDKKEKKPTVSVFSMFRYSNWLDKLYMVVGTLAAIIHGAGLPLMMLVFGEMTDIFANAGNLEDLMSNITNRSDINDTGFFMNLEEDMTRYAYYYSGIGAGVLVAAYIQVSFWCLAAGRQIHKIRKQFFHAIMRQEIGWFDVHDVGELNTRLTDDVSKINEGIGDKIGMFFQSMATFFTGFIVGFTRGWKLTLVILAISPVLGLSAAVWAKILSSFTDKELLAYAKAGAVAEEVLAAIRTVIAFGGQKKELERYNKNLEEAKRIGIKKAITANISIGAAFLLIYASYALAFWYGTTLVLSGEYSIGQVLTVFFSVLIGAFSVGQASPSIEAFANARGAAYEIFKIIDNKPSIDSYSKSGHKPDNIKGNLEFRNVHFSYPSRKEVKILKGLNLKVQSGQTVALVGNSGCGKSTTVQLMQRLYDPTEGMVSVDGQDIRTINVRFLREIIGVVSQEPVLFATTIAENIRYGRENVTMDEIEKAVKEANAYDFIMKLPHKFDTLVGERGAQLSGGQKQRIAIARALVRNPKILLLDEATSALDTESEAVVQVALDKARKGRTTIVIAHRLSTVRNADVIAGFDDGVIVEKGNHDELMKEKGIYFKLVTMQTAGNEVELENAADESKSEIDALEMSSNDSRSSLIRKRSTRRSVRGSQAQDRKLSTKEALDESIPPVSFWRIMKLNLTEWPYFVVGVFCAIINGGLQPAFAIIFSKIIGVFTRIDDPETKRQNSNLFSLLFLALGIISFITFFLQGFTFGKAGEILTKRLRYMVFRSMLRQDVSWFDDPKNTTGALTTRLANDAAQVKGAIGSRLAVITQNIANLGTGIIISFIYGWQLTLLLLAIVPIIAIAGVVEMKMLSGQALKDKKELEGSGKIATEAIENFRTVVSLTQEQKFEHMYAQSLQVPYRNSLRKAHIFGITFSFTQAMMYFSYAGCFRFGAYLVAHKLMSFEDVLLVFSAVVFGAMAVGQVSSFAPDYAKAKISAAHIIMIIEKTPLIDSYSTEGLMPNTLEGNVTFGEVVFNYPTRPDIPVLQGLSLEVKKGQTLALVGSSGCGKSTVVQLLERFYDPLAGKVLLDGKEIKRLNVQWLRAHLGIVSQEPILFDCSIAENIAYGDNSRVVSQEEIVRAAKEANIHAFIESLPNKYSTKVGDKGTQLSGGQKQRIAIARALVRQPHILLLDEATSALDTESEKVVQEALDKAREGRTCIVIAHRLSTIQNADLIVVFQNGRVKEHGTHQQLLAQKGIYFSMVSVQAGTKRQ
sigma-2 receptors, sequence (Q5BJF2 whole entry): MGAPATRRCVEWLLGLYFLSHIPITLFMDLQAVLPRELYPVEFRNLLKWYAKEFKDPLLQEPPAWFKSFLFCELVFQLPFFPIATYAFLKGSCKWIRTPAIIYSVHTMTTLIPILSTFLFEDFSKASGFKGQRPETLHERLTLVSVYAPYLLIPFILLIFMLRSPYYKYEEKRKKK

Row | SMILES | Mitochondrial depolarization (JC-1 staining) (A549 cells [1]) | Mitochondrial depolarization (JC-1 staining) (MCF7 cells [2]) | Mitochondrial ROS (MitoSOX) (A549 cells [3]) | Mitochondrial ROS (MitoSOX) (MCF7 cells [4]) | EC50 (MCF10A) [µM] | EC50 (BEAS-2B) [µM] | ROS levels in whole cells (DCFDA-AM) (MCF7 and A549 cells) | EC50 (MCF7 [5]) [µM] | Ki (sigma-2 receptors) [µM] | Rank order of caspase 9 activation (caspase 9 in MCF7 cells) | Expression of ER stress markers GRP78, ATF6, IRE1, PERK [6] | EC50 (P-gp) [µM] | EC50 (A549 [7]) [µM] | EC50 (MCF7 [8]) [µM] | EC50 (A549 [9]) [µM] | P-gp Activity EC50 (P-gp)
1 | COc1cc2c(cc1OC)CN(CCCCN1C(=O)/C(=N\NC(=S)N(C)C)c3ccccc31)CC2 [MLP44, (Z)-2-(1-(4-(6,7-Dimethoxy-3,4-dihydroisoquinolin-2(1H)-yl)butyl)-2-oxoindolin-3-ylidene)-N,N-dimethylhydrazinecarbothioamide] | totally insensitive | strong depolarization | increased | increased | 24.2 ± 0.8 | 11.9 ± 2.1 | variable | 24.6 | 0.0341 | FA4 > MLP44 > PS3 > ACThio1 | modest effects | 3.04 | 10.4 |  |  | 
2 | CN(C)C(=S)N/N=C1\C(=O)Nc2ccccc21 [ACThio1, (Z)-N,N-dimethyl-2-(2-oxoindolin-3-ylidene)hydrazinecarbothioamide] | did not produce any detectable changes in mitochondrial polarization | did not produce any detectable changes in mitochondrial polarization |  |  | 2.09 ± 0.4 | 3.39 ± 0.8 | not significantly increased |  | > 10 | FA4 > MLP44 > PS3 > ACThio1 | no or negligible effect |  |  | 5.88 ± 1.1 | 4.08 ± 0.4 | Not Active^d
3 | CN(C)C(=S)N/N=C1\C(=O)N(CCCCN2CCN(C3CCCCC3)CC2)c2ccccc21 [PS3, (Z)-2-[1-[4-(4-cyclohexylpiperazin-1-yl)butyl]-2-oxoindolin-3-ylidene]-N,N-dimethylhydrazinecarbothioamide] | did not produce any detectable changes in mitochondrial polarization | did not produce any detectable changes in mitochondrial polarization |  |  | 3.03 ± 0.6 | 6.22 ± 1.3 | not significantly increased | 1.81 | 0.0354 | FA4 > MLP44 > PS3 > ACThio1 | modest effects | 2.83 | 2.2 |  |  | 
